Where “and” joins values, the source holds several entries; their conditions need not be identical. Equal values may be shown once. Read-outs that look alike come from different tables or passages of the source. No end group written: not given here.
How the values were obtained:
zebrafish (Danio rerio) [1] = assay: Zebrafish behavioral tests taken together (open field, light/dark box, shoaling); assay type: in vivo; settings: ip; for basic behavioral parameters in open field, light/dark box and shoaling tests: FLPY 1 and 10 mg/kg, DKTE 10 mg/kg, WDQV 1 mg/kg
Description: (§1) The tested substances were injected into the zebrafish intraperitoneally (ip) using an insulin syringe (0.5 ml, 30 g) 10 minutes before the test. The saline solution (0.9% NaCl) was used as a solvent. Anesthesia and immobilization of the animals were achieved by placing them in water at a temperature of 10° C. Control group fish received intraperitoneal injections of an equivalent volume of solvent, also after going through a pre-cooling procedure.
(§2) The open field test was performed as described in Maximino et al., 2013. A video recording (background shooting) was started 20-30 seconds before the zebrafish were placed in the test aquarium. The experimental zebrafish was placed in an open field (“OF”) aquarium using a net. The recording was being conducted for five minutes. The test was carried out using EthoVision XT software package (Noldus). The software registered the distance covered by the animal, its speed, the number of visits to the three conventional zones of the aquarium: “bottom,” “center,” and […] (lower, middle, and upper thirds of the aquarium, respectively), the time spent in these zones, and the latency of a visit to the middle and to the surface of the aquarium.
(§3) The shoaling behavior test was performed as described in Parker et al., 2014. (Parker et al. (2014) The utility of zebrafish to study the mechanisms by which ethanol affects social behavior and anxiety during early brain development. Prog. Neuro-Psychopharmacology Biol. Psychiatry. 94-100). The video recording began simultaneously with placing the zebrafish in the set-up and recorded for 5 minutes. The videos were processed using RealTimer (OpenScience Ltd., Moskow, Russia). During the processing of the records, the residence time and the number of visits to the three conventional zones of the aquarium wall (near the “shoal” in the middle of the aquarium, and near the opposite side; all three were equal in size) were recorded.
(§4) The light/dark box (LDB) test was performed as described in Maximino et al., 2011. The zebrafish was placed in a light compartment of an LDB using a net, the camera was switched on simultaneously, and the behavior of the zebrafish was recorded for 5 minutes. The video was processed using RealTimer (OpenScience). During the processing of records, the residence time and the number of visits to the light and dark compartments of the test setup were recorded, as well as the latent period of visiting both compartments.

[2] = tested on: FQSE (SEQ ID NO:10)-specific binding sites in the rat cortex; assay: Radioligand analysis with [3H] FQSE on rat cortex membranes
Description: After decapitation, the tissues were immediately frozen in liquid nitrogen and stored in a low-temperature refrigerator at −80° C. On the day of the experiment, brain tissue (cortex, about 300 mg) was homogenized in a Teflon-glass Potter homogenizer 1:25 W:V in the buffer (50 mM Tris-HCl, pH 7.4). The homogenate was centrifuged at 40,000 g for 20 min. The obtained precipitate was homogenized in a buffer (50 mM Tris-HCl; pH=7.4) and centrifuged again at 40,000 g for 20 min. A similar procedure was performed again. The precipitate was resuspended in 15 ml of the same buffer and used for the radioligand analysis.
The incubation mixture (final volume 0.5 ml) contained 50 μl […]
At the end of the incubation, the samples were filtered through Ge/C glass fiber filters (Whatman) previously moistened with 0.3% polyethyleneimine for 2 hours at room temperature. Each tube was washed twice with cold buffer, then the filters were washed twice with the same volume of buffer.
The filters were air-dried and transferred to scintillation vials. Filters were poured with 5 ml of toluene-based scintillation liquid (4 g PPO, 0.2 g POPOP per liter of toluene).
To construct the curves of the radioactive ligand's displacement each concentration of the test substance was taken in 3 replications. […]

Sprague Dawley rats = assay: Forced swim test in rats, intranasal FQSE; assay type: in vivo; settings: FQSE 0.5 mg/kg i.n.; ketamine 10 mg/kg IP
Description: The five doses of FQSE (SEQ ID NO:10) (0.01, 0.1, 0.5, 1 and 3 mg/kg, CS, Menlo Park, CA) were prepared fresh for each test day in sterile saline and administered intranasally (i.n.) 30 minutes prior to testing. Fifteen rats per group per peptide dose were tested with the exception that there were twenty rats in the vehicle (0) group. Each dose was administered in a randomized order across rats. Prior to dosing, the rats were lightly anesthetized (till loss of righting reflex) with isoflurane (2.5%, 0.5 L/min oxygen), placed in the recumbent position, then a thin plastic pipette (Fischer Scientific) inserted into the nares and peptide administered at a volume of 15-20 uL per nares. Individuals performing the behavioral tests were blind to drug treatment.
Rats were first allowed to acclimate to the testing room for 30 minutes while in their home cage. The forced swim tests were conducted using Plexiglas cylinders (10 in width, 18 in height) filled with water maintained at approximately 25° C. On day 1, rats were first habituated (15 minutes) to the forced swim apparatus by being placed into the water facing the cylinder wall. Forced swim tests (5 minutes) occurred the following day. Activity was recorded by digital cameras and analyzed with specialized software (Ethovision XT12).
Statistical significance was set at P<0.05.

zebrafish (Danio rerio) [3] = assay: Shoaling behavior test in zebrafish; assay type: in vivo; settings: ip; for time spent in the compartment near the shoal: ACZ-10 0.6 mg/kg
Description: as §1
A Plexiglas container with a removable partition (shown in FIG. 4) was used as a setup for investigating the shoaling behavior of zebrafish. A shoal of 5 adult Danio rerio specimens was placed into in the small compartment; and the test fish was placed in a large compartment. Diffused lighting in this installation was provided by the usual lighting of the room (about 200 Lx).
as §3

zebrafish (Danio rerio) [4] = assay: Open Field test in zebrafish; assay type: in vivo; settings: ip; for average distance covered / track length (locomotor activity): diazepam 1.25, 5, 10, fluvoxamine 5, 10, ACZ-10 0.6, BCM-7 5, FQSE 1 and 10, DKTE 1, WDQV 10 mg/kg; for time spent at the surface of the aquarium: fluvoxamine 5 and 10 mg/kg, FQSE 1 mg/kg
Description: as §1
(§5) A base, back, and side walls of the aquarium were made of matte black plastic; the front panel (shorter wall) was made of transparent Plexiglas. The setup for the Light/Dark preference test consisted of three main parts: a launch compartment, a light compartment made of white plastic, and a dark compartment made of black plastic. The bright lighting in these tests was provided by a lamp on a stand (LED lamp PL, 11 W, light flux≈600 Lm, about 500 Lx directly above the water surface), which was attached to the upper part of the aquarium.
as §2

zebrafish (Danio rerio) [5] = assay: Light/dark box test in zebrafish; assay type: in vivo; settings: ip
Description: as §1, §5, §4

[6] = diazepam 1.25 mg/kg, BCM-7 5 mg/kg, DKTE 1 mg/kg, vs control
[7] = FQSE 10 mg/kg, ACZ-10 0.6 mg/kg

Molecule: FLPY: tetrapeptide used as a negative control
- basic behavioral parameters in open field, light/dark box and shoaling tests (zebrafish (Danio rerio) [1]): neither of the doses of FLPY (SEQ ID NO:36), induced statistically significant changes

Molecule: O=C(O)C1=CCNCC1 [Isoguvacine]
- Amount of bound [3H] FQSE after pre-incubation compared to control level ([2]; 10^−4M, 1 hour preincubation, 25 minutes incubation): 102.56%
- Amount of bound [3H] FQSE after pre-incubation compared to control level ([2]; 10^−5M, 1 hour preincubation, 25 minutes incubation): 104.33%
- IC50 ([2]; Series 5, 25 and 50 minutes at room temperature, read-out: IC50 with respect to [3H]-FQSE binding): > 100 µM

Molecule: O=C(c1ccc(F)cc1)C1CCN(CCn2c(=O)[nH]c3ccccc3c2=O)CC1 [Ketanserin]
- IC50 ([2]; 25 min incubation at RT, read-out: IC50 with respect to [3H]-FQSE binding): > 100 µM

Molecule: Cn1ncnc1COc1nn2c(-c3c(F)cccc3F)nnc2cc1C1CCC1 [MK0343]
- Amount of bound [3H] FQSE after pre-incubation compared to control level [2]: 98.58% and 104.65%

Molecule: Cn1c2ccc(F)cc2c2c(C(=O)N3CCCC3)cn(-c3ccccc3)c(=O)c21 [SL 651498]
- Amount of bound [3H] FQSE after pre-incubation compared to control level [2]: 101.36% and 106.98%

Molecule: CNC1(c2ccccc2Cl)CCCCC1=O (stereo not shown) [Ketamine]
- immobility (Sprague Dawley rats): 196.4 ± 8.9 s
- mobility (Sprague Dawley rats): 103.6 ± 8.9 s

Molecule: CCCCCCN(CCCCCC)C(=O)Cc1c(-c2ccc(F)cc2)[nH]c2ccccc12 [FGIN-1-27]
- Amount of bound [3H] FQSE after pre-incubation compared to control level [2]: 102.65% and 102.33%

Molecule: YLGYLEQLLR [ACZ-10, L-tyrosyl-L-leucyl-glycyl-L-tyrosyl-L-leucyl-L-alpha-glutamyl-L-glutaminyl-L-leucyl-L-leucyl-L-arginine]
- time spent in the compartment near the shoal (zebrafish (Danio rerio) [3]; [6]): statistically significant decrease
- latent period of leaving the bottom (zebrafish (Danio rerio) [4]; [7]): decreased significantly
- time spent in the upper part of the aquarium (zebrafish (Danio rerio) [4]; [7]): did not affect
- average distance covered / track length (locomotor activity) (zebrafish (Danio rerio) [4]): did not demonstrate any significant effects
- time spent at the surface of the aquarium (zebrafish (Danio rerio) [4]; ACZ-10 0.6 mg/kg): approximately twofold increase

Molecule: CC(=O)[C@H]1CC[C@H]2[C@@H]3CC=C4C[C@@H](O)CC[C@]4(C)[C@H]3CC[C@]12C [Pregnenolone]
- Amount of bound [3H] FQSE after pre-incubation compared to control level [2]: 87% and 81%
- IC50 ([2]; RT, 50 min, read-out: IC50 after different incubation times: 50 min): 36 ± 0.2 µM
- IC50 ([2]; RT, 1 h 30 min, read-out: IC50 after different incubation times: 1 h 30 min): 75 ± 0.3 µM
- IC50 ([2]; RT, 1 h, read-out: IC50 after different incubation times: 1 h): 77 ± 0.2 µM
- IC50 ([2]; read-out: IC50 for the [3H]-FQSE binding sites in rat cortex membranes): ~100 µM

Molecule: O=C(N/N=C/c1ccccc1O)c1ccccc1O [SCS]
- Amount of bound [3H] FQSE after pre-incubation compared to control level [2]: 93.93% and 104.58%

Molecule: CC1(C)CC(=O)c2c(SCCO)sc(-c3nccs3)c2C1 [TB21007]
- Amount of bound [3H] FQSE after pre-incubation compared to control level [2]: 103.14% and 105.28%

Molecule: C[C@]12CC[C@@H](O)C[C@@H]1CC[C@@H]1[C@@H]2CC[C@]2(C)[C@@H](C(=O)CO)CC[C@@H]12 [THDOC, tetrahydrodeoxycorticosterone; 3α,21-dihydroxy-5α-pregnan-20-one]
- Amount of bound [3H] FQSE after pre-incubation compared to control level [2]: 100.59% and 103.38%

Molecule: YPFPGPI [BCM-7, L-tyrosyl-L-prolyl-L-phenylalanyl-L-prolyl-glycyl-L-prolyl-L-isoleucine]
- time spent in the compartment near the shoal (zebrafish (Danio rerio) [3]; [6]): decrease
- time spent outside the shoaling compartment (zebrafish (Danio rerio) [3]; diazepam 1.25 mg/kg, BCM-7 5 mg/kg): did not demonstrate a statistically significant effect
- average distance covered / track length (locomotor activity) (zebrafish (Danio rerio) [4]): slight increase

Molecule: COCCCC/C(=N\OCCN)c1ccc(C(F)(F)F)cc1 [Fluvoxamine]
- increase of the time spent in the upper part (zebrafish (Danio rerio) [4]; FQSE 10 mg/kg, fluvoxamine 5 mg/kg): more than 80%
- average distance covered / track length (locomotor activity) (zebrafish (Danio rerio) [4]): did not demonstrate any significant effects
- increase of the time spent under light (zebrafish (Danio rerio) [4]; fluvoxamine 5 mg/kg): about 6.8 times
- increase of the time spent under light (zebrafish (Danio rerio) [4]; fluvoxamine 10 mg/kg): about 7.2 times
- time spent at the surface of the aquarium (zebrafish (Danio rerio) [4]; ACZ-10 0.6 mg/kg): statistically significant increase

Molecule: DKTE: tetrapeptide D, K, T, E
- latent period of visiting the shoal (zebrafish (Danio rerio) [3]; DKTE 1 mg/kg): statistically significant increase
- time spent in the compartment near the shoal (zebrafish (Danio rerio) [3]; [6]): at the level of tendency
- time spent outside the shoaling compartment (near the wall opposite to the shoal) (zebrafish (Danio rerio) [3]; diazepam 5 mg/kg, FQSE 10 mg/kg, DKTE 1 mg/kg, vs control): statistically significant increase
- latent period of visiting the bottom of the aquarium (zebrafish (Danio rerio) [4]; DKTE 1 mg/kg): increase
- average distance covered / track length (locomotor activity) (zebrafish (Danio rerio) [4]): did not affect
- basic behavioral parameters in open field, light/dark box and shoaling tests (zebrafish (Danio rerio) [1]): did not cause any statistically significant changes
- change in behavior / efficacy in the light/dark box test (zebrafish (Danio rerio) [5]; fluvoxamine 5 and 10 mg/kg, DKTE 1 mg/kg): no observed efficacy

Molecule: Oc1noc2c1CCNC2 [Gaboxadol]
- Amount of bound [3H] FQSE after pre-incubation compared to control level [2]: 99.31% and 100.25%

Molecule: WDQV: tetrapeptide W, D, Q, V
- average distance covered / track length (locomotor activity) (zebrafish (Danio rerio) [4]): no influence
- basic behavioral parameters in open field, light/dark box and shoaling tests (zebrafish (Danio rerio) [1]): no significant effects
- behavior in tests other than the light/dark box (zebrafish (Danio rerio) [1]; WDQV 10 mg/kg): did not reveal any effect
- time spent in the dark compartment (zebrafish (Danio rerio) [5]; FQSE 10 mg/kg, WDQV 10 mg/kg): reduction
- time spent in the light compartment (zebrafish (Danio rerio) [5]; diazepam 5 mg/kg, FQSE 10 mg/kg, WDQV 10 mg/kg): increase

Molecule: CC(=O)[C@H]1CC[C@H]2[C@@H]3CC[C@H]4C[C@H](O)CC[C@]4(C)[C@H]3CC[C@]12C [Allopregnanolone]
- Amount of bound [3H] FQSE after pre-incubation compared to control level [2]: 100.90% and 103.18%

Molecule: CC(C)(C)OC(=O)c1ncn2c1[C@@H]1CCCN1C(=O)c1c(Br)cccc1-2 [Bretanezil]
- Amount of bound [3H] FQSE after pre-incubation compared to control level [2]: 94.79% and 104.51%
